# ChEMBL document CHEMBL5576081, “Exploring the structural activity relationship of the Osimertinib: A covalent inhibitor of double mutant EGFRL858R/T790M tyrosine kinase for the treatment of Non-Small Cell Lung Cancer (NSCLC)” (Bioorg Med Chem, 2024)
# Experiments:
# [1] = molecular target: Epidermal growth factor receptor (Homo sapiens, UniProt P00533, L858R/T790M); test: Inhibition of EGFR L858R/T790M (unknown origin)
# [2] = Antiproliferative activity against mouse KC-0116 cells; type: toxicity, cell-based
# [3] = Antiproliferative activity against mouse Ba/F3 EGFR-T790M/L858R cells incubated for 3 days by Cell Titer-Glo assay; type: functional, cell-based; conditions: 72 h
# PC-9 [4] = test: Antiproliferative activity against human PC-9 cells harboring EGFR del19 mutant assessed as cell growth inhibition incubated for 72 hrs by CellTiter Glo assay; type: functional, cell-based; conditions: PC-9, 72 h
# LoVo [5] = test: Antiproliferative activity against human LoVo cells harboring wild-type EGFR assessed as reduction in cell viability; type: functional, cell-based
# NCI-H1975 [6] = test: Antiproliferative activity against human NCI-H1975 cells harboring EGFR L858R/T790M double mutant assessed as reduction in cell growth incubated for 72 hrs by CellTiter-Glo luminescent assay; type: functional, cell-based; conditions: NCI-H1975, 72 h
# NCI-H1975 [7] = test: Antiproliferative activity against human NCI-H1975 cells; type: functional, cell-based
# NCI-H1975 [8] = test: Cytotoxicity against human NCI-H1975 cells assessed as reduction in cell viability incubated for 48 hrs by CCK-8 assay; type: functional, cell-based; conditions: NCI-H1975, 48 h
# NCI-H292 = test: Cytotoxicity against human NCI-H292 cells assessed as reduction in cell viability incubated for 48 hrs by CCK-8 assay; type: functional, cell-based; conditions: NCI-H292, 48 h
# PC-9 [9] = test: Cytotoxicity against human PC-9 cells assessed as reduction in cell viability incubated for 48 hrs by CCK-8 assay; type: functional, cell-based; conditions: PC-9, 48 h
# PC-9 [10] = test: Antiproliferative activity against human PC-9 cells harboring EGFR Del19 mutant assessed as inhibition of cell growth incubated for 72 hrs by CCK8 assay; type: functional, cell-based; conditions: PC-9, 72 h
# LoVo [11] = test: Antiproliferative activity against human LoVo cells harboring wild-type EGFR assessed as reduction in cell growth incubated for 72 hrs by CCK8 assay; type: functional, cell-based
# A-431 = test: Antiproliferative activity against human A-431 cells assessed as reduction in cell viability incubated for 48 hrs by MTT assay; type: functional, cell-based; conditions: A-431, 48 h
# NCI-H1975 [12] = test: Antiproliferative activity against human NCI-H1975 cells assessed as reduction in cell viability incubated for 72 hrs by Cell-titer glo assay; type: functional, cell-based; conditions: NCI-H1975, 72 h
# Sequence of Epidermal growth factor receptor (P00533 25-1210 T790M/L858R limits assumed): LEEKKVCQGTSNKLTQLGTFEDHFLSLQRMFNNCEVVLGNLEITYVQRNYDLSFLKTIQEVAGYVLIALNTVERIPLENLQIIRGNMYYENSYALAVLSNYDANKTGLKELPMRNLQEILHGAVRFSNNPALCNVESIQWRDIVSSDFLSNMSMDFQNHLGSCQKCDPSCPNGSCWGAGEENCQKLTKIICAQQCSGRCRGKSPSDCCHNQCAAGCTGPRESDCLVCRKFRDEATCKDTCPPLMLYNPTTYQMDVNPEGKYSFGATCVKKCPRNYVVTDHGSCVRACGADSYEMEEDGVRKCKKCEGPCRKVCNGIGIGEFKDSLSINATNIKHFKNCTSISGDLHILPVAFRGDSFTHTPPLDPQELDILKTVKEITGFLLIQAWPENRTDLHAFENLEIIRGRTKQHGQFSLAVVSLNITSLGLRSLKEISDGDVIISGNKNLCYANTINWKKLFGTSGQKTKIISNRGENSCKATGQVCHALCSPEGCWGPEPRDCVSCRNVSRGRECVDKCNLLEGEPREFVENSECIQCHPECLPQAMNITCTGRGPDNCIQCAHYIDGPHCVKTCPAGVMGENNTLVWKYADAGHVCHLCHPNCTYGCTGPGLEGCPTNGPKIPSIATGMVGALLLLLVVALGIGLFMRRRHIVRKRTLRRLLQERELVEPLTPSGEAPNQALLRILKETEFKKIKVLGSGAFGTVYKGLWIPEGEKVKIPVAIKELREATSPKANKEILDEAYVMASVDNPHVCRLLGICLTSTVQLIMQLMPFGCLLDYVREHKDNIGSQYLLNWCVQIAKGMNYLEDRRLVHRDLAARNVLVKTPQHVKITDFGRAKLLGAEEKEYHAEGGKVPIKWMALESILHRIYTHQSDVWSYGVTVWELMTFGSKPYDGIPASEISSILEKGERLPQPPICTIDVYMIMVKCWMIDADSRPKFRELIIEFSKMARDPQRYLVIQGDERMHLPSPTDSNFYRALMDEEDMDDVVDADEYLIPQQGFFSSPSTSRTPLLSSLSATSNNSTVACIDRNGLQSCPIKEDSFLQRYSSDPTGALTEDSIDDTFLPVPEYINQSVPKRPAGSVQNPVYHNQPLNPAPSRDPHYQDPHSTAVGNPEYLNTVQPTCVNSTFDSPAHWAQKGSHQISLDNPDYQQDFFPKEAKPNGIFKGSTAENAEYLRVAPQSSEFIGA
structure (smiles),measurement,setting,value
C=CC(=O)Nc1cc(Nc2nccc(Nc3cnn(CC)c3)n2)c(OC)cc1N(C)CCN(C)C,IC50,[1],0.008 µM
CN(C)C1CCN(c2ccc(Nc3nccc(-c4cn(C)c5ccccc45)n3)cc2)CC1,IC50,[2],0.4 µM
same,IC50,[3],0.45 µM
COc1cc(N(C)CCN(C)C)c(NC(=O)c2ccncn2)cc1Nc1nccc(-c2cn(C)c3ccccc23)n1,IC50,[1],0.242 µM
COc1cc(N(C)CCN(C)C)c(NC(=O)c2ccnc(Cl)c2)cc1Nc1nccc(-c2cn(CCCO)c3ccccc23)n1,IC50,[1],0.137 µM
C=CC(=O)Nc1cc(Nc2ncc(Cl)c(-c3cn(C)c4ccccc34)n2)c(OC)cc1N(C)CCN(C)C,IC50,PC-9 [4],0.002 µM
same,IC50,LoVo [5],0.058 µM
same,IC50,NCI-H1975 [6],0.002 µM
CN1CCN(C2CCN(c3ccc(Nc4nccc(-c5cn(C)c6ccccc56)n4)cc3NS(=O)(=O)C3CC3)CC2)CC1,IC50,[2],0.17 µM
same,IC50,[3],0.2 µM
C=CC(=O)Nc1cc(Nc2nccc(-c3cn(C)c4ccccc34)n2)c(OC)cc1N(C)CCN(C)CC(=O)OC,IC50,[1],0.0057 µM
same,IC50,NCI-H1975 [7],0.008 µM
COc1cc(N(C)CCN(C)C)c(NC(=O)c2ccncn2)cc1Nc1nccc(-c2cn(CCCO)c3ccccc23)n1,IC50,[1],0.161 µM
COc1cc(N(C)CCN(C)C)c(NC(=O)c2ccnc(Cl)c2)cc1Nc1nccc(-c2cn(C)c3ccccc23)n1,IC50,[1],0.42 µM
C=CC(=O)Nc1cc(Nc2ncc(F)c(-c3csc4ccccc34)n2)c(OC)cc1N(C)CCNC(C)C,IC50,NCI-H1975 [8],0.013 µM
same,IC50,NCI-H292,3.96 µM
same,IC50,PC-9 [9],0.03 µM
C=CC(=O)Nc1cc(Nc2ncc(Cl)c(-c3cnn4ccccc34)n2)c(OC)cc1N(C)CCN(C)C,IC50,PC-9 [10],0.002 µM
same,IC50,LoVo [11],0.145 µM
same,IC50,NCI-H1975 [6],0.0006 µM
C=CC(=O)Nc1cc(Nc2ncc(Cl)c(-c3cnn4ccccc34)n2)c(OC)cc1N1CC(N(C)C)C1,IC50,PC-9 [10],0.021 µM
same,IC50,LoVo [11],0.938 µM
C#CCN(C)CCN(C)c1cc(OC)c(Nc2nccc(Nc3ccn(C)n3)n2)cc1NC(=O)C=C,IC50,[1],0.00858 µM
CN(C)C1CCN(c2ccc(Nc3nccc(-c4cn(C)c5ccccc45)n3)cc2NS(C)(=O)=O)CC1,IC50,[2],0.16 µM
same,IC50,[3],0.17 µM
C=CC(=O)Nc1cc(Nc2ncc(C)c(-c3cn(C)c4ccccc34)n2)c(OC)cc1N(C)CCN(C)C,IC50,LoVo [5],0.071 µM
same,IC50,NCI-H1975 [6],0.001 µM
COc1cc(N(C)CCN(C)C)c(NC(=O)CNC(=O)OC(C)(C)C)cc1Nc1nccc(-c2cn(C)c3ccccc23)n1,IC50,[2],1.29 µM
same,IC50,[3],1.28 µM
C=CC(=O)Nc1cc(Nc2nccc(-c3csc4ccccc34)n2)c(OC)cc1N1CCN(CC)CC1,IC50,NCI-H1975 [8],0.09 µM
same,IC50,NCI-H292,> 10 µM
same,IC50,PC-9 [9],0.8 µM
Cn1cc(-c2ccnc(Nc3ccc(N4CCCCC4)cc3)n2)c2ccccc21,IC50,[2],10 µM
same,IC50,[3],> 10 µM
COc1cc(N(C)CCN(C)C)c(NC(=O)c2ccncc2OC)cc1Nc1nccc(-c2cn(C)c3ccccc23)n1,IC50,[1],> 0.5 µM
C=CC(=O)Nc1cc(Nc2ncc(Cl)c(-c3cnn4ccccc34)n2)c(OC)cc1N1CCN(C(=O)[C@H](C)N)CC1,IC50,PC-9 [10],0.028 µM
same,IC50,LoVo [11],1.6 µM
same,IC50,NCI-H1975 [6],0.019 µM
COc1cc(N(C)CCN(C)C)c(NC(=O)CN)cc1Nc1nccc(-c2cn(C)c3ccccc23)n1,IC50,[2],1.32 µM
same,IC50,[3],2.72 µM
C=CC(=O)Nc1cc(Nc2nccc(-c3c[nH]c4ccccc34)n2)c(OC)cc1N(C)CCN(C)C,IC50,PC-9 [4],0.002 µM
same,IC50,LoVo [5],0.033 µM
same,IC50,NCI-H1975 [6],0.002 µM
Cn1cc(-c2ccnc(Nc3ccc(N4CCC(N5CCOCC5)CC4)cc3)n2)c2ccccc21,IC50,[2],1.71 µM
same,IC50,[3],5.74 µM
C=CC(=O)Nc1cc(Nc2nccc(-c3csc4ccccc34)n2)c(OC)cc1N1CCN(C(C)C)CC1,IC50,NCI-H1975 [8],0.13 µM
same,IC50,NCI-H292,> 10 µM
same,IC50,PC-9 [9],1.3 µM
COc1cc(N2CCC(N3CCN(C)CC3)CC2)ccc1Nc1ncc(Cl)c(Nc2ccccc2P(C)(C)=O)n1 [BRIGATINIB],IC50,[2],0.35 µM
same,IC50,[3],0.45 µM
COc1cc(N2CCC(N(C)C)CC2)c(NC(=O)CO)cc1Nc1nccc(-c2cn(C)c3ccccc23)n1,IC50,[2],0.46 µM
same,IC50,[3],0.48 µM
C=CC(=O)Nc1cc(Nc2ncc(C#N)c(-c3cn(C)c4ccccc34)n2)c(OC)cc1N(C)CCN(C)C,IC50,PC-9 [4],0.002 µM
same,IC50,LoVo [5],0.046 µM
same,IC50,NCI-H1975 [6],0.0009 µM
C=CC(=O)Nc1cc(Nc2ncc(Cl)c(-c3c[nH]c4ccccc34)n2)c(OC)cc1N(C)CCN(C)C,IC50,PC-9 [4],0.0006 µM
same,IC50,LoVo [5],0.011 µM
same,IC50,NCI-H1975 [6],0.0002 µM
COc1cc(N(C)CCN(C)C)c(NC(=O)c2cnccn2)cc1Nc1nccc(-c2cn(C)c3ccccc23)n1,IC50,[1],> 0.5 µM
C=CC(=O)Nc1cc(Nc2nccc(Nc3ccn(C)n3)n2)c(OC)cc1N(C)CCN(C)C,IC50,[1],0.0061 µM
CN(C)C1CCN(c2ccc(Nc3nccc(-c4cn(C)c5ccccc45)n3)cc2NS(=O)(=O)C2CC2)CC1,IC50,[2],0.24 µM
same,IC50,[3],0.25 µM
C=CC(=O)Nc1cc(Nc2nccc(-c3cn(C)c4ccccc34)n2)c(OC)cc1N(C)CCN(C)C(=O)c1ccc(Br)cc1,IC50,[1],0.0125 µM
same,IC50,NCI-H1975 [7],0.03 µM
C=CC(=O)Nc1cc(Nc2nccc(-c3csc4ccccc34)n2)c(OC)cc1N(C)CCCN(C)C,IC50,NCI-H1975 [8],0.17 µM
same,IC50,NCI-H292,4 µM
same,IC50,PC-9 [9],0.3 µM
COc1cc(N(C)CCN(C)C)c(NC(=O)c2ncccn2)cc1Nc1nccc(-c2cn(C)c3ccccc23)n1,IC50,[1],> 0.5 µM
C=CC(=O)Nc1cc(Nc2ncc(Cl)c(-c3cnn4ccccc34)n2)c(OC)cc1N1CCN(C(=O)[C@@H](C)N)CC1,IC50,PC-9 [10],0.351 µM
same,IC50,LoVo [11],9 µM
same,IC50,NCI-H1975 [6],0.177 µM
COCC(=O)Nc1cc(Nc2nccc(-c3cn(C)c4ccccc34)n2)c(OC)cc1N1CCC(N(C)C)CC1,IC50,[2],0.46 µM
same,IC50,[3],0.45 µM
C=CC(=O)Nc1cc(Nc2nccc(-c3csc4ccccc34)n2)c(OC)cc1N1CCN(C)CC1,IC50,NCI-H1975 [8],0.5 µM
same,IC50,NCI-H292,> 10 µM
same,IC50,PC-9 [9],1.9 µM
Cn1cc(-c2ccnc(Nc3ccc(N4CCOCC4)cc3)n2)c2ccccc21,IC50,[2],7 µM
same,IC50,[3],> 10 µM
C=CC(=O)Nc1cc(Nc2nccc(-c3cn(C)c4ccccc34)n2)c(OC)cc1N(C)CCN(C)Cc1ccccc1,IC50,NCI-H1975 [7],0.004 µM
Cn1cc(-c2ccnc(Nc3cccc(NC(=O)CCN)c3)n2)c2ccccc21,IC50,[2],4.99 µM
same,IC50,[3],4.77 µM
C=CCCN(C)CCN(C)c1cc(OC)c(Nc2nccc(-c3cn(C)c4ccccc34)n2)cc1NC(=O)C=C,IC50,[1],0.002 µM
same,IC50,NCI-H1975 [7],0.002 µM
C=CC(=O)Nc1cc(Nc2nccc(Nc3ccn(C)n3)n2)c(OC)cc1N(C)CCN(C)CC(=O)OC,IC50,[1],0.0423 µM
C=CC(=O)Nc1cc(Nc2ncc(Cl)c(-c3cnn4ccccc34)n2)c(OC)cc1N1CC[C@@H](N(C)C)C1,IC50,PC-9 [10],0.016 µM
same,IC50,LoVo [11],3.36 µM
same,IC50,NCI-H1975 [6],0.002 µM
C=CC(=O)Nc1cc(Nc2ncc(Cl)c(-c3cnn4ccccc34)n2)c(OC)cc1N1CCN(C(=O)CN(C)C)CC1,IC50,PC-9 [10],0.073 µM
same,IC50,LoVo [11],10 µM
same,IC50,NCI-H1975 [6],0.016 µM
C=CC(=O)Nc1cc(Nc2nccc(-c3cn(C)c4ccccc34)n2)c(OC)cc1N(C)CCN(C)C [OSIMERTINIB],IC50,PC-9 [4],[…]
same,IC50,NCI-H292,2 µM
C=CC(=O)Nc1cc(Nc2ncc(Cl)c(-c3cn(C4CC4)c4ccccc34)n2)c(OC)cc1N(C)CCN(C)C,IC50,NCI-H1975 [12],0.00815 µM
same,IC50,A-431,0.059 µM
C=CC(=O)Nc1cc(Nc2ncc(Cl)c(-c3cnn4ccccc34)n2)c(OC)cc1N1CCN(C(=O)[C@H](C)O)CC1,IC50,PC-9 [10],0.179 µM
same,IC50,LoVo [11],10.3 µM
same,IC50,NCI-H1975 [6],0.075 µM
C=CC(=O)Nc1cc(Nc2ncc(Cl)c(-c3cnn4ccccc34)n2)c(OC)cc1N1CCN(C(=O)CNC)CC1,IC50,PC-9 [10],0.156 µM
same,IC50,LoVo [11],7.5 µM
same,IC50,NCI-H1975 [6],0.066 µM
C=CC(=O)Nc1cc(Nc2nccc(-c3cn(C)c4ccccc34)n2)c(OC)cc1N(C)CCN(C)Cc1ccc(Br)cc1,IC50,[1],0.0081 µM
same,IC50,NCI-H1975 [7],0.02 µM
